Measured values taken from patent publication US8022052B2, “Inhibition of PPAR gamma expression by specific osteogenic oxysterols” (The Regents of the University of California, priority 2006, dated 2011).
Entries after “also recorded” stand apart in the source; their conditions may differ. Read-outs that look alike come from different tables or passages of the source.

Key:
M2 cells = test: 45Ca incorporation assay measuring mineralization in M2 cells; assay type: cell-based
From the text: One aspect of the invention is an oxysterol (e.g. an isolated oxysterol) of the invention as represented by Formula I, above. For example, the compounds designated as Oxy 7, Oxy 9, Oxy11, Oxy12, Oxy13, Oxy 14, and Oxy 15 can stimulate at least a measurable amount of a hedgehog-mediated pathway and/or osteomorphogenesis or osteoproliferation (or a marker thereof), and/or can inhibit at least a measurable amount of adipocyte morphogenesis or adipocyte proliferation (or a marker thereof). Oxy 3 and Oxy 4 can act as enhancers of activity in combination with other oxysterols.

[1] = test system: M2-10B4 (M2) murine pluripotent bone MSC line; test: Tro-induced adipocyte formation in M2 cells, Oil red O staining; assay type: cell-based, mouse; details: for inhibition of Tro-induced adipocyte formation: M2 cells, oxysterol 5 μM
Procedure: (§1) M2 mouse MSCs were purchased from American Type Culture Collection (ATCC, Rockville, Md., USA). […] Cell culture was performed in 24- and 6-well plates for adipogenic differentiation and gene expression studies, respectively, and treatment with test agents was done in growth medium.
Oil red O staining for detection of adipocytes was performed as previously described. […] The number of adipocytes was quantitated by counting Oil red O-positive cells in five separate fields per well, in three wells per experimental condition. The results are reported as the mean of triplicate determination ±SD.
(§2) Adipocyte formation was examined by Oil red O staining. […] PPARγ expression was assessed by RT-qPCR after treating M2 cells with Tro in the presence or absence of 20S. […] M2 cells at confluence were treated with control vehicle, 10 μM Tro, or 5 μM 20S, alone or in combination for 24 hours (FIG. 2A), 48 hours (FIG. 2B), and 96 hours (FIG. 2C). PPARγ mRNA expression was measured by quantitative real-time PCR.
(§3) After 10 days, adipocyte formation was measured by Oil red O staining. The number of adipocytes was determined by counting Oil red O-positive cells in five separate fields per well, in three wells per experimental condition. […] After 48 h, PPARγ mRNA expression was measured by quantitative real-time PCR. […] Luciferase activity was measured after 24 h and normalized for transfection efficiency using the Renilla luciferase activity.
Synthetic oxysterol compounds were studied for inhibition of adipogenesis and PPAR expression. […] After 10 days of treatment, cells were stained with Oil-red-O to detect adipocytes, and the number of positively stained cells was determined using light microscopy. Data from a representative experiment are reported as the mean of triplicate determination (average of five fields per well, 3 wells per experimental condition) ±SD.

PPARγ = PPARγ mRNA expression in M2 cells by RT-qPCR; assay type: cell-based, mouse; details: for reversal of the inhibitory effect of 20S on Tro-induced PPARγ expression: signaling inhibitor
Procedure: as §1
(§4) Total RNA was extracted with the RNA isolation kit from Stratagene (La Jolla, Calif., USA) according to the manufacturer's instructions. RNA was DNase-treated using DNA-free kit from Ambion (Austin, Tex., USA). Three micrograms of RNA was reverse-transcribed using reverse transcriptase from Stratagene to make single-stranded cDNA. The cDNA was mixed with Qi SYBR Green Supermix (Bio-Rad) for quantitative RT-PCR assay using a Bio-Rad I-cycler IQ quantitative thermocycler. All PCR samples were prepared in triplicate wells of a 96-well plate. After 40 cycles of PCR, melt curves were examined to ensure primer specificity. Fold changes in gene expression were calculated using the ΔΔCt method. […] Primers used are as follows: PPARγ2 (5′-[…]-3′ and 5′-[…]-3′), C/EBPα (5′-[…]-3′ and 5′-[…]-3′), ap2 (5′-[…]-3′ and 5′-[…]-3′), LPL (5′-[…]-3′ and 5′-[…]-[…]), GATA2 (5′-[…]-3′ and 5′-[…]-3′), GATA3 (5′-[…]-3′ and 5′-[…]-3′), GILZ (5′-[…]-3′ and 5′-[…]-3′), and pref-1 (5′-[…]-3′ and 5′-[…]-3′).
as §2, §3
After 48 hours of treatment, RNA was extracted from cells and analyzed for PPARγ expression by Q-RT-PCR. Data from a representative experiment, normalized to GAPDH expression, are reported as the mean of triplicate determinations ±SD.

[2] = test system: M2-10B4 (M2) murine pluripotent bone MSC line; details: cited from earlier work
aP2 = aP2 mRNA expression in M2 cells by quantitative real-time PCR; assay type: cell-based, mouse; details: cyclopamine, data not shown
Procedure: . M2 cells at confluence were treated with control vehicle, 10 μM Tro, or 5 μM 20S, alone or in combination for 24 hours (FIG. 4A), 48 hours (FIG. 4B), and 96 hours (FIG. 4C). aP2 mRNA expression was measured by quantitative real-time PCR. Fold changes in gene expression relative to the control were calculated using the ΔΔCt method and reported as the mean of triplicate determination ±SD (p<0.0001 for Tro or Tro+20S vs. control or 20S and p<0.01 for Tro vs. Tro+20S at 24 hours (FIG. 4A); p<0.0001 for Tro or Tro+20S vs. control or 20S and for Tro vs. Tro+20S at 48 hours (FIG. 4B); p<0.0001 for Tro vs. control, 20S, or Tro+20S and p<0.001 for Tro+20S vs. control or 20S at 96 hours (FIG. 4C)).

LPL = details: cyclopamine, data not shown
From the text: as §4

Molecule: C[C@H](O)[C@@H](C)C1CCC2C3CC=C4C[C@@H](O)CC[C@]4(C)C3CC[C@@]21C (stereo partly shown) [Oxy4]
- incorporation of 45Ca in combination with 20(S)-hydroxycholesterol over 20(S)-hydroxycholesterol alone (M2 cells): enhance

Molecule: Cc1cccc(C[C@](C)(O)C2CCC3C4CC=C5C[C@@H](O)CC[C@]5(C)C4CC[C@@]32C)c1 (stereo partly shown) [Oxy11]
- inhibition of Tro-induced adipocyte formation ([1]; 10 μM Tro, 10 days): inhibitory effect

Molecule: CC(C)CCCC[C@](C)(O)C1CCC2C3CC=C4C[C@@H](O)CC[C@]4(C)C3CC[C@@]21C (stereo partly drawn) [Oxy12, (3S,8S,9S,10R,13S,14S,17S)-2,3,4,7,8,9,10,11,12,13,14,15,16,17-tetradecahydro-17-((S)-2-hydroxy-7-methyloctan-2-yl)-10,13-dimethyl-1H-cyclopenta[α]phenanthren-3-ol]
- inhibition of Tro-induced adipocyte formation ([1]; 10 μM Tro, 10 days): inhibitory effect

Molecule: C=C(C)CCC[C@](C)(O)C1CCC2C3CC=C4C[C@@H](O)CC[C@]4(C)C3CC[C@@]21C (stereo partly shown) [Oxy13]
- inhibition of Tro-induced adipocyte formation ([1]; 10 μM Tro, 10 days): inhibitory effect
- inhibition of Tro-induced PPARγ mRNA expression (PPARγ; M2 cells, 10 μM Tro, oxysterol 5 μM, 24, 48, 96 h (20S), 48 h (Oxy13)): inhibits

Molecule: CC(C)=CCC[C@](C)(O)C1CCC2C3CC=C4C[C@@H](O)CC[C@]4(C)C3CC[C@@]21C (stereo partly shown) [Oxy14]
- inhibition of Tro-induced adipocyte formation ([1]; 10 μM Tro, 10 days): inhibitory effect

Molecule: CC(C)CC[C@@H](O)[C@](C)(O)C1CCC2C3CC=C4C[C@@H](O)CC[C@]4(C)C3CC[C@@]21C (stereo partly shown) [Oxy16]
- inhibition of Tro-induced adipocyte formation ([1]; 10 μM Tro, 10 days): inhibitory effect

Molecule: CC[C@H](O)[C@@H](C)C1CCC2C3CC=C4C[C@@H](O)CC[C@]4(C)C3CC[C@@]21C (stereo partly shown) [Oxy 3]
- incorporation of 45Ca in combination with 20(S)-hydroxycholesterol over 20(S)-hydroxycholesterol alone (M2 cells): enhance

Molecule: CC(C)CC[C@@H](O)[C@@H](C)[C@H]1CC[C@H]2[C@@H]3CC=C4C[C@@H](O)CC[C@]4(C)[C@H]3CC[C@]12C [Oxy 22R, 22(R)-hydroxycholesterol]
- adipogenic differentiation of M2 cells (previously reported) [2]: inhibit

Molecule: CC(C)CC[C@H](O)[C@@H](C)[C@H]1CC[C@H]2[C@@H]3CC=C4C[C@@H](O)CC[C@]4(C)[C@H]3CC[C@]12C [Oxy 22S, 22(S)-hydroxycholesterol]
- adipogenic differentiation of M2 cells (previously reported) [2]: inhibit

Molecule: COc1cccc(-c2cc(=O)c3ccccc3o2)c1N [PD98059]
- reversal of the inhibitory effects of 20S on Tro-induced adipocyte formation ([1]; 10-day M2 cultures, Cyclopamine 4 μM, Dkk-1 1 μg/mL, PD98059 20 μM): 50%
- reversal of the inhibitory effect of 20S on Tro-induced PPARγ expression (PPARγ; M2 cells): 45%

Molecule: CC1=C2C[C@H]3[C@@H](CC=C4C[C@@H](O)CC[C@@]43C)[C@@H]2CC[C@]12O[C@@H]1C[C@H](C)CN[C@H]1[C@H]2C [cyclopamine]
- reversal of the inhibitory effects of 20S on aP2 expression (aP2): reversed
- reversal of the inhibitory effects of 20S on LPL expression (LPL): reversed
- reversal of the inhibitory effects of 20S on Tro-induced adipocyte formation [1]: 70%
- reversal of the inhibitory effects of Shh on Tro-induced adipocyte formation [1]: 100%
- reversal of the anti-adipogenic effects of 20S (in words) ([1]; 4 μM cyclopamine 2-h pretreatment, 10 μM Tro, 5 μM 20S, 10 days): reversed; also recorded: blocks; also recorded: did not completely reverse
- reversal of the anti-adipogenic effects of Shh (in words) ([1]; cyclopamine 2-h pretreatment, 10 μM Tro, 200 ng/mL Shh, 10 days): completely reversed; also recorded: blocks
- additional effect on adipocyte formation of increasing the dose of cyclopamine ([1]; cyclopamine from 4 to 8 μM, Tro+20S, data not shown): did not have any additional effect
- reversal of the inhibitory effect of 20S on Tro-induced PPARγ mRNA expression (in words) (PPARγ): fully reversed; also recorded: completely abolished; also recorded: blocks; also recorded: completely blocked
- reversal of the inhibitory effect of Shh on Tro-induced PPARγ mRNA expression (in words) (PPARγ): fully reversed; also recorded: completely abolished; also recorded: blocks; also recorded: completely reversed; also recorded: completely blocked

B1: Dkk-1: canonical Wnt signaling inhibitor (protein, UniProt O94907 32-266, looked up)
Dickkopf-related protein 1: TLNSVLNSNAIKNLPPPLGGAAGHPGSAVSAAPGILYPGGNKYQTIDNYQPYPCAEDEECGTDEYCASPTRGGDAGVQICLACRKRRKRCMRHAMCCPGNYCKNGICVSSDQNHFRGEIEETITESFGNDHSTLDGYSRRTTLSSKMYHTKGQEGSVCLRSSDCASGLCCARHFWSKICKPVLKEGQVCTKHRRKGSHGLEIFQRCYCGEGLSCRIQKDHHQASNSSRLHTCQRH
- reversal of the inhibitory effect of 20S on Tro-induced PPARγ expression (PPARγ; M2 cells): 10%
